Test results taken from patent US8916526B2, “Flavanone derivative” (National University Corporation Okayama University, priority 2009, dated 2014).
≈ marks a conversion by molar mass, not a printed value. Where two headings read alike, the source gives them in different places.

What was measured:
[1] = test system: Pseodomonas aeruginosa PAOI; test: Antibacterial activity (MIC) against Gram-negative strains, microdilution; format: cell-based; conditions: MIC after 24 h
Procedure: (§1) The antibacterial activities were measured based on broth dilution techniques of international standards (Clinical Laboratory Standards Institute: CLSI). The activities were shown by minimum inhibitory concentrations (MICs) determined by inoculating the above-mentioned strains at a concentration of about 10^5 […] into Mueller-Hinton broth (manufactured by Difco) containing 0.85% NaCl in 96-well microplates and incubating the plates at 35° C. for 24 hours. Measurement was carried out three times.

Escherichia coli K-12 = test: as above; format: cell-based; conditions: for MIC (Gram-nagative) K-12: MIC after 24 h
Procedure: as §1

[2] = biological target: T1, Escherichia coli Topoisomerase IV (Escherichia coli, UniProt P0AFI2+P20083); test: Topoisomerase IV inhibition (decatenation kit), Exp. Ex. 2-3; format: biochemical; conditions: decatenation of kDNA, 37° C., 30 minutes; read-out: IC50 (E. coli topoisomerase IV inhibitions)
T1 construct: purchased John Innes Enterprises
Procedure: (§2) Staphylococcus aureus Topoisomerase IV and Escherichia coli Topoisomerase IV were purchased from John Innes Enterprises. 1 unit of topoisomerase IV was cultured with 200 ng of kinetoplast DNA (kDNA) in 30 L of a reaction solution at 37° C. for 30 minutes under the conditions of 50 mM Tris-HCl (pH 7.5) (S. aureus)/50 mM HEPES-KOH (pH 7.6) (E. coli), 5 mM MgCl2 (S. aureus)/5 mM magnesium acetate (E. coli), 350 mM potassium glutamate (S. aureus)/100 mM potassium glutamate (E. coli), 5 mM dithiotheri (S. aureus)/10 mM dithiotheri (E. coli), 1.5 mM ATP (S. aureus)/1 mM ATP (E. coli), and 40% (w/v) glycerol. The reactions were stopped by adding 8 L of a reaction stop solution (40% sucrose, 100 mM Tris.HCl (pH 7.5), 1 mM EDTA, 0.5 mg/ml bromophenol blue). Agarose gel (1.0%) was poured into TAE (40 mM Tris acetate, 2 mM EDTA).

[3] = biological target: T2, Staphylococcus aureus Topoisomerase IV (Staphylococcus aureus, UniProt P0C1S7+P0C1U9); test: as above; format: biochemical
T2 construct: purchased John Innes Enterprises
Procedure: as §2

[4] = test system: Methicillin-resistant S. aureus N315; test: In vitro infectivity assay (MIC), Exp. Ex. 2-1; format: cell-based, Staphylococcus aureus; conditions: Gram-positive, microdilution, MIC after 24 h
Procedure: as §1
(§3) The antibacterial activities of the compounds of the present invention against various strains such as vancomycin-resistant enterococci (VRE), vancomycin intermediate-resistant Staphylococcus aureus (VISA), methicillin-resistant Staphylococcus aureus (MRSA), and methicillin-sensitive Staphylococcus aureus (MSSA) were examined. Of the bacteria used in MIC measurement in this test example, clinical bacteria of MRSA (OM481 strain and OM584 strain) were supplied from Okayama University Hospital (Japan). An MRSA strain N315, a vancomycin intermediate-resistant Staphylococcus aureus (VISA) strain Mu50, and a methicillin-sensitive Staphylococcus aureus (MSSA) strain FDA 209P were used as controls. Vancomycin-resistant enterococcus (VRE) strains NCTC 12201 and FN-1 were supplied from the National Institute of Infectious Disease (Japan).

[5] = test system: Methicillin-resistant S. aureus OM584; test: In vitro infectivity assay (MIC), Exp. Ex. 2-1; format: cell-based, Staphylococcus aureus; conditions: Gram-positive, microdilution, MIC after 24 h
Procedure: as §1, §3

[6] = test system: Methicillin-resistant S. aureus OM481; test: In vitro infectivity assay (MIC), Exp. Ex. 2-1; format: cell-based, Staphylococcus aureus; conditions: Gram-positive, microdilution, MIC after 24 h
Procedure: as §1, §3

[7] = test system: Methicillin sensitive S. aureus 209P; test: In vitro infectivity assay (MIC), Exp. Ex. 2-1; format: cell-based, Staphylococcus aureus; conditions: Gram-positive, microdilution, MIC after 24 h
Procedure: as §1, §3

[8] = test system: Methicillin-resistant S. aureus COL; test: In vitro infectivity assay (MIC), Exp. Ex. 2-1; format: cell-based, Staphylococcus aureus; conditions: Gram-positive, microdilution, MIC after 24 h
Procedure: as §1, §3

E. coli DNA gyrase = biological target: T3, E. coli DNA gyrase (Escherichia coli, UniProt P0AES4+P0AES6); test: DNA gyrase inhibition (supercoiling kit), Exp. Ex. 2-2; format: biochemical
T3 construct: purchased John Innes Enterprises #K0001
Procedure: As a kit for measurement of DNA gyrase of Escherichia coli, a product purchased from John Innes Enterprises (Gyrase Supercoiling assay kit #K0001) was used. Relaxed DNA was modified with gyrase into supercoiled DNA, and reaction products were separated by electrophoresis depending on the sizes of the molecular weights to examine anti-gyrase effects (IC50). 1 unit (1 U) of DNA gyrase and […] of relaxed pBR322 DNA were added to […] of the reaction solution, and the mixture was allowed to react at 37° C. for 30 minutes in the presence of 35 mM Tris-HCl (pH 7.5), 24 mM KCl, 4 mM MgCl2, 2 mM DTT, 1.8 mM spermidine, 1 mM ATP, 6.5% (w/v) glycerol, and 0.1 mg/ml BSA. The reactions were stopped using […] of a reaction stop solution (40% sucrose, 100 mM Tris-HCl (pH 7.5), 1 mM EDTA, 0.5 mg/ml bromophenol blue).

[9] = test system: Vancomycin-resistant enterococci NCTC 12201; test: In vitro infectivity assay (MIC), Exp. Ex. 2-1; format: cell-based; conditions: Gram-positive, microdilution, MIC after 24 h
Procedure: as §1, §3

[10] = test system: Vancomycin intermediate-resistant Staphylococcus aureus Mu50; test: In vitro infectivity assay (MIC), Exp. Ex. 2-1; format: cell-based; conditions: Gram-positive, microdilution, MIC after 24 h
Procedure: as §1, §3

[11] = test system: Vancomycin-resistant enterococci FN-1; test: In vitro infectivity assay (MIC), Exp. Ex. 2-1; format: cell-based; conditions: Gram-positive, microdilution, MIC after 24 h
Procedure: as §1, §3

[12] = test system: Streptococcus pneumoniae R6; test: In vitro infectivity assay (MIC), Exp. Ex. 2-1; format: cell-based; conditions: Gram-positive, microdilution, MIC after 24 h
[13] = decatenation of kDNA, 37° C., 30 minutes, read-out: IC50 (S. aureus topoisomerase IV inhibitions)
[14] = supercoiling activity, 37° C., 30 minutes, read-out: IC50 (E. coli DNA gyrase inhibitions)

T3 sequence (P0AES4 whole entry, one chain of several): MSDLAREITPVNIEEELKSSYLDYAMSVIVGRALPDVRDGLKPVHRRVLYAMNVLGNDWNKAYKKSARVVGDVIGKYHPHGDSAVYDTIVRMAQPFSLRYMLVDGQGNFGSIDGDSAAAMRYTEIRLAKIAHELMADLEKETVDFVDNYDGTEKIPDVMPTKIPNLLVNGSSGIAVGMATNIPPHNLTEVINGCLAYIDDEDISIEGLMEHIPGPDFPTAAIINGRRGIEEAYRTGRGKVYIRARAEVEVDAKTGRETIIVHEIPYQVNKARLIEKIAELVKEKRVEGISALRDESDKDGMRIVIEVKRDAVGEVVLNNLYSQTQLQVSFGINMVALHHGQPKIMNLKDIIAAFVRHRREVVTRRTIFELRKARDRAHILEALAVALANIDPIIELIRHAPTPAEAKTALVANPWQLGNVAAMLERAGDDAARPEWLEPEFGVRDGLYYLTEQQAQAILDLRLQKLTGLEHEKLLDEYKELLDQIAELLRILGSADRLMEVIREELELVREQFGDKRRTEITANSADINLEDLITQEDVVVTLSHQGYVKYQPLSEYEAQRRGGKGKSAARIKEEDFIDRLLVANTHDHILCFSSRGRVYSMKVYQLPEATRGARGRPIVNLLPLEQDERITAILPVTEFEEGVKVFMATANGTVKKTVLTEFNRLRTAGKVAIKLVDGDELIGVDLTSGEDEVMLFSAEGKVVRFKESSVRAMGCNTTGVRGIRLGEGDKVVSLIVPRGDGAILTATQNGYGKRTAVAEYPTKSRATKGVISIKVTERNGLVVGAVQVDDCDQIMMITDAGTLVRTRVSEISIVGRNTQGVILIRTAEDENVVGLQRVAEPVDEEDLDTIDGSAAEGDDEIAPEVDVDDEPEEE
T2 sequence (P0C1U9 whole entry): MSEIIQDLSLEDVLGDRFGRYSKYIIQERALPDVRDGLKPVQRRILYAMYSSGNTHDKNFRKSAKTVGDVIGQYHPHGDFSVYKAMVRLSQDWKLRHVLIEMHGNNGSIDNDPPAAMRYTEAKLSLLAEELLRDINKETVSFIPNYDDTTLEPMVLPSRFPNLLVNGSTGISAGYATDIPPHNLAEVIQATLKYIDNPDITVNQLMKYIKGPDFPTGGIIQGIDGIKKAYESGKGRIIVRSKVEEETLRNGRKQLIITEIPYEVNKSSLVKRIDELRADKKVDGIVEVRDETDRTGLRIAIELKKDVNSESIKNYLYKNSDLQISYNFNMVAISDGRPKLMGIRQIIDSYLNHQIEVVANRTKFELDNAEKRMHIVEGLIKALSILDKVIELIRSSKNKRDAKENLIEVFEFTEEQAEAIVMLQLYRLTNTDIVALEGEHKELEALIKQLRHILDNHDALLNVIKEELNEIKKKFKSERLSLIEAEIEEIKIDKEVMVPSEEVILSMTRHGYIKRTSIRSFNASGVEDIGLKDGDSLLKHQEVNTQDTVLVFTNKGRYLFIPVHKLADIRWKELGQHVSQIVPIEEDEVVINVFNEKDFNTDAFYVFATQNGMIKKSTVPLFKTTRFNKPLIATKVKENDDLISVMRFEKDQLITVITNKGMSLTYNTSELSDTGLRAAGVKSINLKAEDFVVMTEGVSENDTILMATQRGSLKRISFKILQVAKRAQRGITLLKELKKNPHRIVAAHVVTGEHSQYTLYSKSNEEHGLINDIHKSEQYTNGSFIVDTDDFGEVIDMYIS
T2 sequence (P0C1S7 whole entry): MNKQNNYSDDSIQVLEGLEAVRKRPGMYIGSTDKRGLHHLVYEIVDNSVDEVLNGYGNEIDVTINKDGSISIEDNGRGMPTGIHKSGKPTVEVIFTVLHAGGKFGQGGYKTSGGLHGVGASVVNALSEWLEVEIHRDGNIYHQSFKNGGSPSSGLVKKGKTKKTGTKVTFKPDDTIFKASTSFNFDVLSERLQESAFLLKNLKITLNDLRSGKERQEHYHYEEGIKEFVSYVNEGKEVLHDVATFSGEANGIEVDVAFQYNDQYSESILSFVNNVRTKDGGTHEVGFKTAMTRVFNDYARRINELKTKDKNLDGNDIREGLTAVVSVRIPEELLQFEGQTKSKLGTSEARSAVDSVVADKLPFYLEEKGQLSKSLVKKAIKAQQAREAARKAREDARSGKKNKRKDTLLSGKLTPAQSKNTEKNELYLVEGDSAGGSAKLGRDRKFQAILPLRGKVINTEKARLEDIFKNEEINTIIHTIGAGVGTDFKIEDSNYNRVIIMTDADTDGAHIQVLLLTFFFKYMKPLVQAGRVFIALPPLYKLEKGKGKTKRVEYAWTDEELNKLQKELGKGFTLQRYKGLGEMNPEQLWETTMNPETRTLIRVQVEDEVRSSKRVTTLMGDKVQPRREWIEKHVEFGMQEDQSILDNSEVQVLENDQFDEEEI
T1 sequence (P20083 whole entry): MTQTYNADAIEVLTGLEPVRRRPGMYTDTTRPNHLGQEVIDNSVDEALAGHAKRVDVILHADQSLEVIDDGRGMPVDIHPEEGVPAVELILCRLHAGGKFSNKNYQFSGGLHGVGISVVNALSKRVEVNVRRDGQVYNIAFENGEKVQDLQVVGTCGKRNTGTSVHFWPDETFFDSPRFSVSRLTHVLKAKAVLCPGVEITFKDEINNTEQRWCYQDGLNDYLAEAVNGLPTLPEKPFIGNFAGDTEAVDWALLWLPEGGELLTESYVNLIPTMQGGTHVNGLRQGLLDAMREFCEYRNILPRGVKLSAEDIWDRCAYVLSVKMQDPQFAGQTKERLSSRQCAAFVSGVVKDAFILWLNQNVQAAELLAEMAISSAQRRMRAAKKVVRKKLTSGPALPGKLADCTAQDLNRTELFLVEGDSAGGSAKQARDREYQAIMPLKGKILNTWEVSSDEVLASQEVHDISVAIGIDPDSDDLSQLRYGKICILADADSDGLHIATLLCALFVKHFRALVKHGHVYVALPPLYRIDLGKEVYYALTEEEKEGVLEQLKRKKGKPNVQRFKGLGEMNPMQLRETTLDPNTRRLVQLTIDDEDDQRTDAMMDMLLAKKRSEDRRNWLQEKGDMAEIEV
T1 sequence (P0AFI2 whole entry): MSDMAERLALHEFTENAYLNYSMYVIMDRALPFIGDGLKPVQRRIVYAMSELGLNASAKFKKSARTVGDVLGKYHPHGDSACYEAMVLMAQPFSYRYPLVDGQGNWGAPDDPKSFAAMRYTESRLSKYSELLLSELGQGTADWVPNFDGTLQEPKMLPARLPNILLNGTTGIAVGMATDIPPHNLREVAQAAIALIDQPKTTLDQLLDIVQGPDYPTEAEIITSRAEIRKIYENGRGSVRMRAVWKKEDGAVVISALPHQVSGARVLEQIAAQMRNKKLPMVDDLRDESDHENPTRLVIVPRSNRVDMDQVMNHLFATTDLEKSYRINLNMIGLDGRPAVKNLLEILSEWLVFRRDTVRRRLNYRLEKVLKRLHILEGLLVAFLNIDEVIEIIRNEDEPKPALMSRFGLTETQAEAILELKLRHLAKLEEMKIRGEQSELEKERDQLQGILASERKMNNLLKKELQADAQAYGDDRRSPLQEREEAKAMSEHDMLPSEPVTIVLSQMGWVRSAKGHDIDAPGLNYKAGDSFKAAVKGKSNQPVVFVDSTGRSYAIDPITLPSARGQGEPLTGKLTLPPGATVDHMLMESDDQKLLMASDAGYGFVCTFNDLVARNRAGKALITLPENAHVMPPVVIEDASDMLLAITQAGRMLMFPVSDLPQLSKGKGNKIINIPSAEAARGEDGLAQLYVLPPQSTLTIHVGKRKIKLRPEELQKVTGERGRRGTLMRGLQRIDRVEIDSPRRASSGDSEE

| SMILES | MIC (Gram-nagative) PAO1 [1] [µg/mL] | MIC (Gram-nagative) K-12 (Escherichia coli K-12) [µg/mL] | IC50 [2] [nM] | IC50 [3, 13] [nM] | MIC MRSA N315 [4] [µg/mL] | MIC MRSA OM584 [5] [µg/mL] | MIC MRSA OM481 [6] [µg/mL] | MIC MSSA 209P [7] [µg/mL] | MIC MRSA COL [8] [µg/mL] | IC50 (E. coli DNA gyrase; [14]) [nM] | MIC VRE NCTC 12201 [9] [µg/mL] | MIC VISA Mu50 [10] [µg/mL] | MIC VRE FN-1 [11] [µg/mL] | MIC S. Pneumoniae R6 [12] [µg/mL] | also measured |
| --- | --- | --- | --- | --- | --- | --- | --- | --- | --- | --- | --- | --- | --- | --- | --- |
| O=C(OC[C@H]1O[C@@H](Oc2c(-c3ccc(O)c(O)c3)oc3cc(O)cc(O)c3c2=O)[C@H](OC(=O)c2ccc(F)cc2)[C@@H](O)[C@H]1O)c1ccc(F)cc1 [Compound 14c, 2-(3′,4′-Dihydroxyphenyl)-5,7-dihydroxy-3-β-D-[2″,6″-di-O-(4-fluorobenzoyl)]galactosyl-4H-chromen-4-one] | >128 | >128 | 7020 | 520 | 8 (≈ 11.3 µM) | 2 (≈ 2.82 µM) | 2 (≈ 2.82 µM) | 4 (≈ 5.65 µM) | 8 (≈ 11.3 µM) | 380 | 4 (≈ 5.65 µM) | 2 (≈ 2.82 µM) | 4 (≈ 5.65 µM) | 4 (≈ 5.65 µM) |  |
| Cc1ccc(CCC(=O)OCC2OC(Oc3c(-c4ccc(O)c(O)c4)oc4cc(O)cc(O)c4c3=O)C(OC(=O)CCc3ccc(C)cc3)C(O)C2O)cc1 [Compound 14l, 2-(3′,4′-Dihydroxyphenyl)-5,7-dihydroxy-3-β-D-{2″,6″-di-O-[3′″-(4-methylphenylpropanoyl)]}galactosyl-4H-chromen-4-one] |  |  | 7990 |  |  |  |  |  |  |  |  |  |  |  | MIC ([1]; read-out: MIC (Gram-nagative) PAO1): > 128 µg/mL; MIC (Escherichia coli K-12; K12, MIC after 24 h, read-out: MIC (Gram-nagative) K-12): > 128 µg/mL; IC50 [3]: 2570 nM; MIC ([4]; Staphylococcus aureus, MRSA, read-out: MIC MRSA N315): 16 µg/mL (≈ 21.1 µM); MIC ([5]; Staphylococcus aureus, MRSA, read-out: MIC MRSA OM584): 16 µg/mL (≈ 21.1 µM); MIC ([6]; Staphylococcus aureus, MRSA, read-out: MIC MRSA OM481): 16 µg/mL (≈ 21.1 µM); MIC ([7]; Staphylococcus aureus, 209P / MSSA, read-out: MIC MSSA 209P): 16 µg/mL (≈ 21.1 µM); MIC ([8]; Staphylococcus aureus, MRSA): 32 µg/mL (≈ 42.3 µM); IC50 (E. coli DNA gyrase): 1790 nM; MIC ([9]; Enterococcus, NCTC 12201 / VRE, read-out: MIC VRE NCTC 12201): 32 µg/mL (≈ 42.3 µM); MIC ([10]; Staphylococcus aureus, VISA, read-out: MIC VISA Mu50): 16 µg/mL (≈ 21.1 µM); MIC ([11]; Enterococcus, VRE, read-out: MIC VRE FN-1): 32 µg/mL (≈ 42.3 µM); MIC ([12]; Streptococcus pneumoniae, R6, read-out: MIC S. Pneumoniae R6): 32 µg/mL (≈ 42.3 µM) |
| O=C(CCc1ccc(F)cc1)OC[C@H]1O[C@@H](Oc2c(-c3ccc(O)c(O)c3)oc3cc(O)cc(O)c3c2=O)[C@H](OC(=O)CCc2ccc(F)cc2)[C@@H](O)[C@H]1O [Compound 14i, 2-(3′,4′-Dihydroxyphenyl)-5,7-dihydroxy-3-β-D-{2″,6″-di-O-[3′″-(4-fluorophenylpropanoyl)]}galactosyl-4H-chromen-4-one] | >128 | >128 | 7160 | 220 | 0.13 (≈ 0.17 µM) | 0.13 (≈ 0.17 µM) | 0.13 (≈ 0.17 µM) | 0.13 (≈ 0.17 µM) | 0.5 (≈ 0.654 µM) | 780 | 0.25 (≈ 0.327 µM) | 0.5 (≈ 0.654 µM) | 0.25 (≈ 0.327 µM) | 0.13 (≈ 0.17 µM) |  |
| O=C(CCc1ccc(F)cc1)OC[C@H]1O[C@@H](Oc2c(-c3ccc(O)c(O)c3)oc3cc(O)cc(O)c3c2=O)[C@H](OC(=O)CCc2ccc(F)cc2)[C@@H](O)[C@H]1O [Compound 14m, 2-(3′,4′-Dihydroxyphenyl)-5,7-dihydroxy-3-β-D-{2″,6″-di-O-[3′″-(4-fluorophenylpropanoyl)]}galactosyl-4H-chromen-4-one] | >128 | >128 | 7520 | 2990 | 16 (≈ 20.9 µM) | 16 (≈ 20.9 µM) | 16 (≈ 20.9 µM) | 16 (≈ 20.9 µM) | 32 (≈ 41.8 µM) | 1400 | 16 (≈ 20.9 µM) | 32 (≈ 41.8 µM) | 16 (≈ 20.9 µM) | 32 (≈ 41.8 µM) |  |
| Cc1ccc(CCC(=O)OC[C@H]2O[C@@H](Oc3c(-c4ccc(O)c(O)c4)oc4cc(O)cc(O)c4c3=O)[C@H](OC(=O)CCc3ccc(C)cc3)[C@@H](O)[C@H]2O)cc1 [Compound 14h, 2-(3′,4′-Dihydroxyphenyl)-5,7-dihydroxy-3-β-D-{2″,6″-di-O-[3′″-(4-methylphenylpropanoyl)]}galactosyl-4H-chromen-4-one] | >128 | >128 | 7460 | 1490 | 0.25 (≈ 0.33 µM) | 0.25 (≈ 0.33 µM) | 0.25 (≈ 0.33 µM) | 0.25 (≈ 0.33 µM) | 1 (≈ 1.32 µM) | 2090 | 0.5 (≈ 0.661 µM) | 0.5 (≈ 0.661 µM) | 0.5 (≈ 0.661 µM) | 0.25 (≈ 0.33 µM) |  |
